In US10905704B2, “Agents and methods using thereof for the prevention and treatment of stem cell muscle disorders” (ECOLE POLYTECHNIQUE FEDERALE DE LAUSANNE (EPFL), priority 2015, dated 2021):

How the values were obtained:
[1] = Grip strength test; type: in vivo, C57BL/6J mice; details: aged mice, NR diet, FIG. 3G
Experimental: Grip strength test. Muscle strength was assessed by a grip strength behavior task. The grasp strength of each mouse for all four limbs was measured on a pull-grid assembly connected to a grip strength meter (Columbus Instruments). The mouse was drawn along a straight line parallel to the grid until the grip is broken, providing the peak force in grams. This was repeated 4 times with 5 minute intervals between measurements.

[2] = system: MuSCs; experiment: MuSC autofluorescence (405/450) as measure of relative NAD(P)H, cellular redox ratio; type: cell-based; details: MuSCs isolated from NR-treated Mdx mice, FIG. 6G-I
Experimental: Determining cellular redox ratio. NAD+ and NADH quantification and ratio were measured using a kit from Biovision (Milpitas, Calif.), following providers' instructions. With continuous muscle regeneration, MuSCs in Mdx mice are abnormally active at a young age, leading to MuSC depletion and dysfunction later in life. […] Thus the self-renewal capacity of Mdx mouse MuSCs was tested. The cellular redox ratio decreases as MuSCs differentiate (Fulco et al., 2003, Molecular Cell, 12: 51), which can be detected by the increase in 405/450 autofluorescence (Quinn et al., 2013, Scientific Reports, 3: 3432). […] We then performed β-galactosidase staining on primary MuSCs isolated from Mdx mice, with or without NR treatment, and cultured these cells with NR or vehicle in vitro. […] The prevention of MuSCs senescence in NR-treated Mdx mice was confirmed by the attenuation of γH2AX and cleaved caspase-3 immunostaining (FIG. 6K). To evaluate MuSC function, CTX-induced muscle regeneration was examined in NR-treated mice.

NC(=O)c1ccc[n+]([C@@H]2O[C@H](CO)[C@@H](O)[C@H]2O)c1 [NR, nicotinamide riboside]
limb grip strength [1]: improvements
405/450 autofluorescence of MuSCs [2]: significant reduction in autofluorescence
